The record followed here is PubChem BioAssay (NCI).

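Exposure lasted 48 hours, with cells grown in 96-well plates and compounds tested at five concentrations. TGI denotes the concentration required for complete inhibition of growth.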

Test systems include COLO 205 colon; NCI-H23 lung; MDA-MB-435; T-47D breast; A549 NSCLC; LOX IMVI melanoma; UACC-62 melanoma; SNB-75 CNS; A498 renal; SF-295 CNS.
Common to all, as to experiment: NCI tumour cell line growth inhibition, 48 h

For the compound `O=c1c(C=Nc2ccc([N+](=O)[O-])cc2)c(O)n(-c2ccccc2)c(=O)n1-c1ccccc1`, the TGI in the experiment with COLO 205 colon, in the experiment with NCI-H23 lung, in the experiment with MDA-MB-435, in the experiment with T-47D breast, in the experiment with A549 NSCLC and in the experiment on LOX IMVI melanoma was above 100 µM in each case. The TGI with UACC-62 melanoma, in the experiment with SNB-75 CNS, in the experiment with A498 renal and in the experiment on SF-295 CNS was above 100 µM throughout.
As for `CNC(=O)c1cc(NC(=O)N(CCC#N)CCN(C(=O)N[C@@H](Cc2ccccc2)C(=O)N[C@@H](CC(C)C)C(=O)NC)c2ccccc2)ccc1OC`, the TGI is above 100 µM in the experiment with COLO 205 colon; above 100 µM in the experiment on NCI-H23 lung; above 100 µM in the experiment on MDA-MB-435; above 85.9 µM in the experiment with T-47D breast; above 100 µM in the experiment on A549 NSCLC; above 100 µM in the experiment on LOX IMVI melanoma. Further, the TGI in the experiment with UACC-62 melanoma is above 55.4 µM; in the experiment with SNB-75 CNS, above 100 µM; in the experiment with A498 renal, above 91.5 µM; in the experiment on SF-295 CNS, above 100 µM.
`COc1cccc(N(CN2CC=CC2=O)C(C)=O)c1`: the TGI with COLO 205 colon, in the experiment with NCI-H23 lung, with MDA-MB-435, in the experiment with T-47D breast, with A549 NSCLC and in the experiment with LOX IMVI melanoma was above 100 µM in each case. Also, the TGI with UACC-62 melanoma, in the experiment with SNB-75 CNS, in the experiment with A498 renal and in the experiment with SF-295 CNS was above 100 µM each time.
Consider `Cc1ccc(C(C2C(=O)N(C)C(=O)N(C)C2=O)C(F)(F)C(=O)N(C)C)cc1` (stereo not given), for which the TGI with COLO 205 colon, in the experiment with NCI-H23 lung, with MDA-MB-435, in the experiment on T-47D breast, with A549 NSCLC and with LOX IMVI melanoma was above 100 µM throughout. The TGI in the experiment with UACC-62 melanoma, in the experiment with SNB-75 CNS, in the experiment on A498 renal and with SF-295 CNS was above 100 µM in each case.
Consider `CN(C)Cc1cc(O)c(O)c(CN(C)C)c1`, for which the TGI in the experiment with COLO 205 colon, with NCI-H23 lung, with MDA-MB-435, with T-47D breast, in the experiment on A549 NSCLC and in the experiment on LOX IMVI melanoma was above 100 µM each time. Further, the TGI with UACC-62 melanoma, in the experiment on SNB-75 CNS, in the experiment on A498 renal and in the experiment on SF-295 CNS was above 100 µM in each case.
On to `CC(CO)C1C[C@H](O)[C@@]2(C)CC(=O)C=C(CO)[C@@H]2C1` (stereo not given in full), for which the TGI with COLO 205 colon, in the experiment on NCI-H23 lung, in the experiment on MDA-MB-435, in the experiment with T-47D breast, in the experiment with A549 NSCLC and in the experiment with LOX IMVI melanoma was above 100 µM in each case. The TGI in the experiment on UACC-62 melanoma, in the experiment with SNB-75 CNS, with A498 renal and with SF-295 CNS was above 100 µM each time.
Consider `CCCCc1ccc(Nc2ncc3[nH]cnc3n2)cc1`, for which the TGI in the experiment with COLO 205 colon was 36.7 µM; in the experiment on NCI-H23 lung it was 35.4 µM; in the experiment with MDA-MB-435 it was above 100 µM; in the experiment with T-47D breast, 61 µM; in the experiment on A549 NSCLC it was 53.2 µM; in the experiment with LOX IMVI melanoma, 37.6 µM. Further, the TGI is 49.6 µM in the experiment with UACC-62 melanoma, 35.5 µM in the experiment with SNB-75 CNS, 45.4 µM with A498 renal and 38 µM with SF-295 CNS.
Turning to `O=C(CCCCCCCCC(=O)N1C(=O)CC(=O)N(c2cccc(Cl)c2)C1=S)N1C(=O)CC(=O)N(c2cccc(Cl)c2)C1=S`, the TGI with COLO 205 colon, with NCI-H23 lung, in the experiment on MDA-MB-435, in the experiment with T-47D breast, in the experiment with A549 NSCLC and in the experiment with LOX IMVI melanoma was above 100 µM each time. The TGI with UACC-62 melanoma is 84.3 µM; with SNB-75 CNS it was above 100 µM; with A498 renal, above 100 µM; with SF-295 CNS, above 100 µM.
In the case of `C=C(CC[C@@H](C(=O)O)[C@H]1[C@H](O)C[C@@]2(C)C3=CC[C@@H](C(=C)C)[C@](C)(CCC(=O)O)C3=CC[C@]12C)C(C)C`, the TGI with COLO 205 colon was 44.3 µM; in the experiment with NCI-H23 lung, 31.6 µM; in the experiment with MDA-MB-435, 33.5 µM; in the experiment on T-47D breast, 50.7 µM; in the experiment on A549 NSCLC it was 35.1 µM; with LOX IMVI melanoma, 38.4 µM. The TGI with UACC-62 melanoma was 29.1 µM; with SNB-75 CNS, 36.5 µM; with A498 renal, 38.8 µM; in the experiment on SF-295 CNS, 31.4 µM.
As for `CCOC(=O)/C=C(/C(=O)OCC)n1cc(C)c(=O)n(Cc2cn(COCCOC(C)=O)nn2)c1=O`, the TGI in the experiment on COLO 205 colon is above 55.2 µM; with NCI-H23 lung it was 26.3 µM; in the experiment with MDA-MB-435, 52.7 µM; in the experiment with T-47D breast, above 64.3 µM; in the experiment with A549 NSCLC, above 100 µM; in the experiment with LOX IMVI melanoma it was 47.8 µM. For the same compound, the TGI in the experiment with UACC-62 melanoma was 40.9 µM; in the experiment on SNB-75 CNS, above 100 µM; in the experiment with A498 renal, above 100 µM; in the experiment with SF-295 CNS, above 100 µM.
As for `Nc1ccccc1N/C=C\C(=O)C(Cl)(Cl)Cl`, the TGI is 52.7 µM in the experiment with COLO 205 colon; 59.9 µM in the experiment with NCI-H23 lung; 28 µM with MDA-MB-435; 43.1 µM in the experiment with T-47D breast; above 100 µM in the experiment with A549 NSCLC; 29.7 µM with LOX IMVI melanoma. Further, the TGI with UACC-62 melanoma came out at 35.9 µM; in the experiment with SNB-75 CNS it was 72.2 µM; in the experiment with A498 renal, 38.9 µM; with SF-295 CNS, 75.1 µM.
For the compound `O=C1c2c(nc3ccccc3c2-c2ccccc2)CN1Nc1ccccn1`, the TGI with COLO 205 colon, with NCI-H23 lung, in the experiment with MDA-MB-435, in the experiment with T-47D breast, with A549 NSCLC and in the experiment with LOX IMVI melanoma was above 100 µM each time. In addition, the TGI in the experiment with UACC-62 melanoma was above 100 µM; with SNB-75 CNS it was above 92.8 µM; in the experiment with A498 renal it was 18.1 µM; in the experiment with SF-295 CNS, above 100 µM.
On to `COc1cc(/C=C2\CCC(CN(C)C)C2=O)ccc1OC(=O)c1ccccc1` (stereo not given), for which the TGI in the experiment on COLO 205 colon stood at 24.8 µM; in the experiment on NCI-H23 lung, 36.7 µM; with MDA-MB-435, 27.3 µM; in the experiment with T-47D breast it was 7.9 µM; with A549 NSCLC, 51.5 µM; with LOX IMVI melanoma, 13 µM. Also, the TGI in the experiment on UACC-62 melanoma is 30.9 µM; with SNB-75 CNS it was 35 µM; in the experiment with A498 renal, 33.1 µM; in the experiment on SF-295 CNS, 32 µM.
`NC(=O)c1ccc2c(c1)S(=O)(=O)c1ccccc1C2=O`: the TGI with COLO 205 colon, in the experiment with NCI-H23 lung, in the experiment with MDA-MB-435, in the experiment on T-47D breast, with A549 NSCLC and in the experiment with LOX IMVI melanoma was above 100 µM each time. Besides, the TGI in the experiment with UACC-62 melanoma, with SNB-75 CNS, with A498 renal and with SF-295 CNS was above 100 µM throughout.
Regarding `COC(OC)C1OC(CO)C(n2ccc(N)nc2=O)C1O` (stereo not given), the TGI in the experiment on COLO 205 colon, in the experiment with NCI-H23 lung, with MDA-MB-435, in the experiment with T-47D breast, with A549 NSCLC and in the experiment on LOX IMVI melanoma was above 100 µM in each case. Besides, the TGI in the experiment on UACC-62 melanoma, in the experiment with SNB-75 CNS, in the experiment with A498 renal and with SF-295 CNS was above 100 µM in each case.
`CN(NC(=O)CCCl)C1=NCCCCN1`: the TGI in the experiment with COLO 205 colon, in the experiment on NCI-H23 lung, in the experiment with MDA-MB-435, with T-47D breast, in the experiment with A549 NSCLC and in the experiment with LOX IMVI melanoma was above 100 µM throughout. The TGI with UACC-62 melanoma, with SNB-75 CNS, in the experiment with A498 renal and in the experiment on SF-295 CNS was above 100 µM in each case.
Regarding `O=S1(=O)c2ccccc2C(=NO)c2ccccc21`, the TGI with COLO 205 colon, in the experiment on NCI-H23 lung, with MDA-MB-435, in the experiment on T-47D breast, in the experiment with A549 NSCLC and with LOX IMVI melanoma was above 100 µM each time. The TGI in the experiment on UACC-62 melanoma, in the experiment on SNB-75 CNS, in the experiment on A498 renal and in the experiment with SF-295 CNS was above 100 µM in each case.
Turning to `O=[N+]([O-])c1ccc(N=Nc2c(O)c(S(=O)(=O)O)cc3cc(S(=O)(=O)O)ccc23)cc1`, the TGI in the experiment with COLO 205 colon, with NCI-H23 lung, in the experiment on MDA-MB-435, in the experiment on T-47D breast, with A549 NSCLC and in the experiment with LOX IMVI melanoma was above 100 µM each time. For the same compound, the TGI in the experiment on UACC-62 melanoma, in the experiment on SNB-75 CNS, with A498 renal and with SF-295 CNS was above 100 µM each time.
`C(=C\c1ccccc1)/C=N/c1nc2cc3sc(/N=C/C=C/c4ccccc4)nc3cc2s1`: the TGI with COLO 205 colon is above 25.8 µM; in the experiment on NCI-H23 lung, above 100 µM; in the experiment on MDA-MB-435, above 100 µM; in the experiment with T-47D breast, above 100 µM; with A549 NSCLC, above 100 µM; with LOX IMVI melanoma, above 100 µM. Further, the TGI with UACC-62 melanoma, with SNB-75 CNS, with A498 renal and in the experiment on SF-295 CNS was above 100 µM throughout.
With `[N-]=[N+]=NCc1cccc(Nc2cc(=O)[nH]c(=O)[nH]2)c1`, the TGI in the experiment on COLO 205 colon, with NCI-H23 lung, with MDA-MB-435, with T-47D breast, in the experiment on A549 NSCLC and in the experiment on LOX IMVI melanoma was above 100 µM each time. Moreover, the TGI with UACC-62 melanoma, with SNB-75 CNS, with A498 renal and with SF-295 CNS was above 100 µM in each case.
As for `Cc1sc(/N=C/c2c[nH]c3ccccc23)c(C#N)c1C`, the TGI in the experiment with COLO 205 colon, with NCI-H23 lung, in the experiment on MDA-MB-435, in the experiment with T-47D breast, with A549 NSCLC and in the experiment on LOX IMVI melanoma was above 100 µM each time. In addition, the TGI in the experiment on UACC-62 melanoma is 78.8 µM; with SNB-75 CNS, above 100 µM; in the experiment with A498 renal it was 96.7 µM; with SF-295 CNS, above 100 µM.
Consider `C=CCSC1=N/C(=C\c2ccccc2)C(=O)N1CC=C`, for which the TGI was above 100 µM with COLO 205 colon; above 100 µM in the experiment on NCI-H23 lung; above 100 µM in the experiment on MDA-MB-435; 98.6 µM in the experiment with T-47D breast; above 100 µM in the experiment on A549 NSCLC; above 81.3 µM with LOX IMVI melanoma. Moreover, the TGI was above 100 µM with UACC-62 melanoma, 89.2 µM with SNB-75 CNS, 83.9 µM in the experiment with A498 renal and above 100 µM with SF-295 CNS.
